Our source for the IC50 values is patent US10246426B2, “Triazole compounds as T-type calcium channel blockers” (IDORSIA PHARMACEUTICALS LTD, priority 2014, dated 2019).

In this assay the target is Cav3.2 (Homo sapiens, UniProt O95180). Description: Calcium flux FLIPR assay, HEK293 cells recombinantly expressing Cav3.2. The conditions noted are these: Cav3.2-channel, Ca2+ entry stimulated by 10 mM CaCl2. The assay is classed as cell-based. The method, boiled down: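 Fluo-4-loaded HEK293 cells stably expressing Cav3.2, seeded overnight at 37 °C; compounds diluted in TEAC buffer (pH 7.2) and preincubated 3 min before Ca2+ entry triggered with CaCl2 at 10 mM final. Area under FLIPR fluorescence trace fitted sigmoidally; IC50 relative to vehicle signal.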
Sequence of Cav3.2 (O95180 whole entry, looked up): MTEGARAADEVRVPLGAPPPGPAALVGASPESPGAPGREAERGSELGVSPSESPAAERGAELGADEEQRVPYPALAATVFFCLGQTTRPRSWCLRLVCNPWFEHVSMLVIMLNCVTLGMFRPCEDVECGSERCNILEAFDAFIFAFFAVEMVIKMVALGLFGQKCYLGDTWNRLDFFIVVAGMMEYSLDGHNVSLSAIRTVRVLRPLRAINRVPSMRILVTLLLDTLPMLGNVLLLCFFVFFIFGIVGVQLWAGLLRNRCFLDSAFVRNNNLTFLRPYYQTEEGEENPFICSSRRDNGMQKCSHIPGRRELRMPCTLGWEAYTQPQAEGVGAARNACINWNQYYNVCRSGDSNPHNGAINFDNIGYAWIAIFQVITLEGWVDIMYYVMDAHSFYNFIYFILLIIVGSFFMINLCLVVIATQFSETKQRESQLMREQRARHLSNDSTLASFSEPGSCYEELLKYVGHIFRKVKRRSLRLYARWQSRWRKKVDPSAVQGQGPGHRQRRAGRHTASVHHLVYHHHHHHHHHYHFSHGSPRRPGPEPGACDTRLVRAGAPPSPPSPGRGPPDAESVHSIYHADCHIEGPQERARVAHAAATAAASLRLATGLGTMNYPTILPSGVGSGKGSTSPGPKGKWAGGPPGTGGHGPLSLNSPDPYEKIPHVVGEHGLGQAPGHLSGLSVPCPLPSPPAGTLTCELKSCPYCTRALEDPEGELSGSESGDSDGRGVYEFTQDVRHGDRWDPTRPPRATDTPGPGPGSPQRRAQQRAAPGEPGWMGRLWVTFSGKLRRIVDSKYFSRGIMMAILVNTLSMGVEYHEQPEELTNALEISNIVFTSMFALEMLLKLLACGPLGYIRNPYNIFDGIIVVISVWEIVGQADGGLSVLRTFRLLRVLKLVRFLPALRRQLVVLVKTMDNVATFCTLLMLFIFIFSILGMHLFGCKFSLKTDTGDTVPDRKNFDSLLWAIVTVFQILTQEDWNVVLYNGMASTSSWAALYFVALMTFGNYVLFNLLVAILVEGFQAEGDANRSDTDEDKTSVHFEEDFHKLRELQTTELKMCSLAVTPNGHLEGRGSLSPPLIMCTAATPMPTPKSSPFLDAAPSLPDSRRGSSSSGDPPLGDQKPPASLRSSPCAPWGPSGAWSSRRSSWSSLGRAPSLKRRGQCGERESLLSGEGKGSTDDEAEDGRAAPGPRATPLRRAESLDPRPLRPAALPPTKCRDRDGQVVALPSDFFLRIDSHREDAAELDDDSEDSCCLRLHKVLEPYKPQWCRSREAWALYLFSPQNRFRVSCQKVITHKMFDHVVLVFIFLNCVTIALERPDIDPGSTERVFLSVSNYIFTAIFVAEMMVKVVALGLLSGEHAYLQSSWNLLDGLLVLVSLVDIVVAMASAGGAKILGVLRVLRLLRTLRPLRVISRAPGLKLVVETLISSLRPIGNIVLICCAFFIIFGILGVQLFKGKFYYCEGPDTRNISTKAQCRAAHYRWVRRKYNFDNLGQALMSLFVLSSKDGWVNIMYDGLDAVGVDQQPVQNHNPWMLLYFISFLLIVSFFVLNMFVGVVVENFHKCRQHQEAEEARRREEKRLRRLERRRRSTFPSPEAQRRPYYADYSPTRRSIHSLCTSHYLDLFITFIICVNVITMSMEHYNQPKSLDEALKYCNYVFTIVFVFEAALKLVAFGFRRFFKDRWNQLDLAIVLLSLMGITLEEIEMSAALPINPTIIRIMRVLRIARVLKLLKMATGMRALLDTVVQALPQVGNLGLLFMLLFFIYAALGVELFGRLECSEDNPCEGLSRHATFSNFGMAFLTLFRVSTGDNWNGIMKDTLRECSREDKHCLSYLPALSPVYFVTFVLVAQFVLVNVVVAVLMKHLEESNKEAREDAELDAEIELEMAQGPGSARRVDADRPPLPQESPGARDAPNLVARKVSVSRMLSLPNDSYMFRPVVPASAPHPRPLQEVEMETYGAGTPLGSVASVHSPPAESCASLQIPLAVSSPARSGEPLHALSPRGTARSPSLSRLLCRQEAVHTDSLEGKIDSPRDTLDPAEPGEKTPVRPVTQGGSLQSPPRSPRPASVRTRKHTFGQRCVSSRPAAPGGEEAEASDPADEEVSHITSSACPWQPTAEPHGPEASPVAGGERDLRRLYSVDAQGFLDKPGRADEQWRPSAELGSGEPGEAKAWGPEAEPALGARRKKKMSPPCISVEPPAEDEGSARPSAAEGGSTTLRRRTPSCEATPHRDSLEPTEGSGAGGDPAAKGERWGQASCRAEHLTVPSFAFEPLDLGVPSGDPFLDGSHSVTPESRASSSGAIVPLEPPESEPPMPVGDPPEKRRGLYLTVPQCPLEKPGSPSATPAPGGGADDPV
A general note: Calcium flux is commonly read through the fluorescence of an indicator in the cells.
Usually IC50 stands for the concentration needed to halve the response being measured. As for `COc1ccc(Cn2ncc(NC(=O)Cc3ccc(C(C)(C)C)cc3)n2)cc1OC` [Example 49, 2-(4-tert-Butyl-phenyl)-N-[2-(3,4-dimethoxy-benzyl)-2H-[1,2,3]triazol-4-yl]-acetamide], the half-maximal inhibitory concentration (IC50) was found to be 170 nM.
As for `COc1cc(Cn2ncc(NC(=O)Cc3ccc(C(C)C)cc3)n2)cc(F)c1F` [Example 222, N-[2-(3,4-Difluoro-5-methoxy-benzyl)-2H-[1,2,3]triazol-4-yl]-2-(4-isopropyl-phenyl)-acetamide], the IC50 worked out at 300 nM.
In the case of `COc1c(F)cc(Cn2ncc(NC(=O)Cc3ccc(OCC4(C)COC4)cc3)n2)cc1F` [Example 144, N-[2-(3,5-Difluoro-4-methoxy-benzyl)-2H-[1,2,3]triazol-4-yl]-2-[4-(3-methyl-oxetan-3-ylmethoxy)-phenyl]-acetamide], the IC50 turned out to be 56 nM.
In the case of `CCCCn1ncc2cc(CC(=O)Nc3cnn(Cc4ccc(F)c(F)c4)n3)ccc21` [Example 30, 2-(1-Butyl-1H-indazol-5-yl)-N-[2-(3,4-difluoro-benzyl)-2H-[1,2,3]triazol-4-yl]-acetamide], the IC50 was 17 nM.
For `COc1cc(Cn2ncc(NC(=O)Cc3ccc4c(c3)c(C)cn4C)n2)cc(F)c1F` [Example 240, N-[2-(3,4-Difluoro-5-methoxy-benzyl)-2H-[1,2,3]triazol-4-yl]-2-(1,3-dimethyl-1H-indol-5-yl)-acetamide], the IC50 was 180 nM.
With `CCn1ncc2cc(CC(=O)Nc3cnn(Cc4ccc(OC)c(F)c4)n3)ccc21` [Example 128, 2-(1-Ethyl-1H-indazol-5-yl)-N-[2-(3-fluoro-4-methoxy-benzyl)-2H-[1,2,3]triazol-4-yl]-acetamide], the IC50 is 150 nM.
With `Cc1ccc(Cn2ncc(NC(=O)Cc3ccc(N4CCCC4)nc3)n2)cc1C#N` [Example 213, N-[2-(3-Cyano-4-methyl-benzyl)-2H-[1,2,3]triazol-4-yl]-2-(6-pyrrolidin-1-yl-pyridin-3-yl)-acetamide] the figure was 120 nM; with `Cc1cc2cc(CC(=O)Nc3cnn(Cc4ccc(F)c(F)c4)n3)ccc2[nH]1` [Example 31, N-[2-(3,4-Difluoro-benzyl)-2H-[1,2,3]triazol-4-yl]-2-(2-methyl-1H-indol-5-yl)-acetamide], 11 nM.
Take `COc1ccc(Cn2ncc(NC(=O)Cc3ccc(C4(OC)COC4)cc3)n2)cc1F` [Example 122, N-[2-(3-Fluoro-4-methoxy-benzyl)-2H-[1,2,3]triazol-4-yl]-2-[4-(3-methoxy-oxetan-3-yl)-phenyl]-acetamide]: the IC50 is 360 nM.
`COc1c(F)cc(Cn2ncc(NC(=O)Cc3ccc4c(cnn4C)c3)n2)cc1F` [Example 82, N-[2-(3,5-Difluoro-4-methoxy-benzyl)-2H-[1,2,3]triazol-4-yl]-2-(1-methyl-1H-indazol-5-yl)-acetamide]: the IC50 was 23 nM.
`Cn1ncc2cc(CC(=O)Nc3cnn(Cc4ccc(F)c(C#N)c4)n3)ccc21` [Example 173, N-[2-(3-Cyano-4-fluoro-benzyl)-2H-[1,2,3]triazol-4-yl]-2-(1-methyl-1H-indazol-5-yl)-acetamide]: the IC50 was found to be 150 nM.
Then `COc1cc(Cn2ncc(NC(=O)Cc3ccc(N4CCCC4)nc3)n2)cc(F)c1F` [Example 221, N-[2-(3,4-Difluoro-5-methoxy-benzyl)-2H-[1,2,3]triazol-4-yl]-2-(6-pyrrolidin-1-yl-pyridin-3-yl)-acetamide], with 160 nM.
In the case of `Cn1ncc2cc(CC(=O)Nc3cnn(Cc4ccc(F)c(F)c4)n3)cnc21` [Example 38, N-[2-(3,4-Difluoro-benzyl)-2H-[1,2,3]triazol-4-yl]-2-(1-methyl-1H-pyrazolo[3,4-b]pyridin-5-yl)-acetamide], the IC50 was found to be 580 nM.
`N#Cc1ccc(Cn2ncc(NC(=O)Cc3cnc(N4CCCC4)c(F)c3)n2)nc1` [Example 247, N-[2-(5-Cyano-pyridin-2-ylmethyl)-2H-[1,2,3]triazol-4-yl]-2-(5-fluoro-6-pyrrolidin-1-yl-pyridin-3-yl)-acetamide]: the IC50 is 690 nM.
As for `CCn1ncc2cc(CC(=O)Nc3cnn(Cc4ccc(F)c(OC)c4)n3)ccc21` [Example 117, 2-(1-Ethyl-1H-indazol-5-yl)-N-[2-(4-fluoro-3-methoxy-benzyl)-2H-[1,2,3]triazol-4-yl]-acetamide], the IC50 was determined as 80 nM.
Take `CCN(CC)c1ccc(CC(=O)Nc2cnn(Cc3ccc(F)c(F)c3)n2)cn1` [Example 16, 2-(6-Diethylamino-pyridin-3-yl)-N-[2-(3,4-difluoro-benzyl)-2H-[1,2,3]triazol-4-yl]-acetamide]: the IC50 worked out at 15 nM.
On to `N#Cc1ccc(Cn2ncc(NC(=O)Cc3ccc(C4(C(F)(F)F)CC4)cc3)n2)cc1` [Example 195, N-[2-(4-Cyano-benzyl)-2H-[1,2,3]triazol-4-yl]-2-[4-(1-trifluoromethyl-cyclopropyl)-phenyl]-acetamide], for which the IC50 is 63 nM.
For the compound `Cn1ncc2cc(CC(=O)Nc3cnn(Cc4ccc(OC(F)(F)F)c(F)c4)n3)ccc21` [Example 186, N-[2-(3-Fluoro-4-trifluoromethoxy-benzyl)-2H-[1,2,3]triazol-4-yl]-2-(1-methyl-1H-indazol-5-yl)-acetamide], the IC50 amounted to 8.8 nM.
Consider `CCCn1ncc2cc(CC(=O)Nc3cnn(Cc4ccc(C#N)cc4)n3)ccc21` [Example 104, N-[2-(4-Cyano-benzyl)-2H-[1,2,3]triazol-4-yl]-2-(1-propyl-1H-indazol-5-yl)-acetamide], for which the half-maximal inhibitory concentration (IC50) worked out at 70 nM.
Regarding `COc1cc(Cn2ncc(NC(=O)Cc3ccc(OCC4CC(F)(F)C4)cc3)n2)ccc1F` [Example 111, 2-[4-(3,3-Difluoro-cyclobutylmethoxy)-phenyl]-N-[2-(4-fluoro-3-methoxy-benzyl)-2H-[1,2,3]triazol-4-yl]-acetamide], the half-maximal inhibitory concentration (IC50) was found to be 57 nM.
For `Cc1ccc(Cn2ncc(NC(=O)Cc3ccc(C4(C(F)(F)F)CC4)cc3)n2)cc1C#N` [Example 226, N-[2-(3-Cyano-4-methyl-benzyl)-2H-[1,2,3]triazol-4-yl]-2-[4-(1-trifluoromethyl-cyclopropyl)-phenyl]-acetamide], the IC50 is 250 nM.
For the compound `COc1ccc(Cn2ncc(NC(=O)Cc3ccc(C(C)C)cc3)n2)cc1C#N` [Example 205, N-[2-(3-Cyano-4-methoxy-benzyl)-2H-[1,2,3]triazol-4-yl]-2-(4-isopropyl-phenyl)-acetamide], the IC50 was determined as 160 nM.
Turning to `O=C(Cc1ccc(N2CCCC2)nc1)Nc1cnn(Cc2ccc(OC(F)(F)F)c(F)c2)n1` [Example 192, N-[2-(3-Fluoro-4-trifluoromethoxy-benzyl)-2H-[1,2,3]triazol-4-yl]-2-(6-pyrrolidin-1-yl-pyridin-3-yl)-acetamide], the IC50 came out at 23 nM.
In the case of `COc1ccc(Cn2ncc(NC(=O)Cc3ccc(C(C)C)cc3)n2)cc1` [Example 25, 2-(4-Isopropyl-phenyl)-N-[2-(4-methoxy-benzyl)-2H-[1,2,3]triazol-4-yl]-acetamide], the IC50 worked out at 33 nM.
Then `COc1ccc(Cn2ncc(NC(=O)Cc3ccc4c(cnn4C)c3)n2)cc1` [Example 63, N-[2-(4-Methoxy-benzyl)-2H-[1,2,3]triazol-4-yl]-2-(1-methyl-1H-indazol-5-yl)-acetamide], with 160 nM.
For `COc1cc(Cn2ncc(NC(=O)Cc3ccc(OCC4COC4)cc3)n2)ccc1F` [Example 108, N-[2-(4-Fluoro-3-methoxy-benzyl)-2H-[1,2,3]triazol-4-yl]-2-[4-(oxetan-3-ylmethoxy)-phenyl]-acetamide], the IC50 worked out at 300 nM.
Take `CN1C(=O)C(C)(C)c2cc(CC(=O)Nc3cnn(Cc4ccc(F)c(F)c4)n3)ccc21` [Example 19, N-[2-(3,4-Difluoro-benzyl)-2H-[1,2,3]triazol-4-yl]-2-(1,3,3-trimethyl-2-oxo-2,3-dihydro-1H-indol-5-yl)-acetamide]: the 50% inhibitory concentration (IC50) was 9.7 nM.
In the case of `COc1ccc(Cn2ncc(NC(=O)Cc3ccc(C4(C(F)(F)F)CC4)cc3)n2)cc1C#N` [Example 203, N-[2-(3-Cyano-4-methoxy-benzyl)-2H-[1,2,3]triazol-4-yl]-2-[4-(1-trifluoromethyl-cyclopropyl)-phenyl]-acetamide], the concentration for half-maximal inhibition (IC50) amounted to 220 nM.
For the compound `Cc1ccc(Cn2ncc(NC(=O)Cc3ccc(N4CCCC4)nc3)n2)cc1` [Example 68, N-[2-(4-Methyl-benzyl)-2H-[1,2,3]triazol-4-yl]-2-(6-pyrrolidin-1-yl-pyridin-3-yl)-acetamide], the IC50 amounted to 45 nM.
Then `COc1c(F)cc(Cn2ncc(NC(=O)Cc3ccc(OCC4COC4)cc3)n2)cc1F` [Example 141, N-[2-(3,5-Difluoro-4-methoxy-benzyl)-2H-[1,2,3]triazol-4-yl]-2-[4-(oxetan-3-ylmethoxy)-phenyl]-acetamide], with 86 nM; and `CCOc1ccc(Cn2ncc(NC(=O)Cc3ccc(C(C)(C)C)cc3)n2)cc1` [Example 43, 2-(4-tert-Butyl-phenyl)-N-[2-(4-ethoxy-benzyl)-2H-[1,2,3]triazol-4-yl]-acetamide], with 45 nM; and `COc1ccc(Cn2ncc(NC(=O)Cc3ccc(C(C)(C)C)cc3)n2)cc1F` [Example 130, 2-(4-tert-Butyl-phenyl)-N-[2-(3-fluoro-4-methoxy-benzyl)-2H-[1,2,3]triazol-4-yl]-acetamide], with 62 nM.
`Cc1nn(C)c2ccc(CC(=O)Nc3cnn(Cc4ccc(OC(F)(F)F)c(F)c4)n3)cc12` [Example 191, 2-(1,3-Dimethyl-1H-indazol-5-yl)-N-[2-(3-fluoro-4-trifluoromethoxy-benzyl)-2H-[1,2,3]triazol-4-yl]-acetamide]: the concentration for half-maximal inhibition (IC50) amounted to 11 nM.
Then `N#Cc1ccc(Cn2ncc(NC(=O)Cc3ccc(OCC4(F)COC4)cc3)n2)cc1F` [Example 175, N-[2-(4-Cyano-3-fluoro-benzyl)-2H-[1,2,3]triazol-4-yl]-2-[4-(3-fluoro-oxetan-3-ylmethoxy)-phenyl]-acetamide], with 100 nM; and `CC(C)c1ccc(CC(=O)Nc2cnn(Cc3ccc(F)c(C#N)c3)n2)cc1` [Example 174, N-[2-(3-Cyano-4-fluoro-benzyl)-2H-[1,2,3]triazol-4-yl]-2-(4-isopropyl-phenyl)-acetamide], with 28 nM.
